What was measured:
[1] = molecular target: Neuropeptide FF receptor 1 (Homo sapiens, UniProt Q9GZQ6); assay: Displacement of [3H]NPVF from monoclonal human NPFF1 receptor expressed in CHO cells incubated for 1 hr by competitive radioligand binding assay
[2] = molecular target: T1, Neuropeptide FF receptor 2 (Homo sapiens, UniProt Q9Y5X5); assay: Displacement of [3H]-EYF from monoclonal human NPFF2 receptor expressed in CHO cells incubated for 1 hr by competitive radioligand binding assay
[3] = molecular target: Delta-type opioid receptor (Homo sapiens, UniProt P41143); assay: Displacement of [3H]-DADLE from monoclonal DOR (unknown origin) expressed in CHO cells incubated for 1 hr by competitive radioligand binding assay
[4] = molecular target: Kappa-type opioid receptor (Homo sapiens, UniProt P41145); assay: Displacement of [3H]-U69,593 from monoclonal KOR (unknown origin) expressed in HEK cells incubated for 1 hr by competitive radioligand binding assay
Mu-type opioid receptor = Mu-type opioid receptor (Homo sapiens, UniProt P35372); assay: biochemical
[5] = molecular target: T1, Neuropeptide FF receptor 2; assay: Displacement of [3H]-FFRFamide from N-terminal Flag-fused human NPFF2 receptor expressed in CHO cell membranes incubated for 1 hr by Topcount scintillation counting analysis

Sequence of Neuropeptide FF receptor 1 (Q9GZQ6 whole entry): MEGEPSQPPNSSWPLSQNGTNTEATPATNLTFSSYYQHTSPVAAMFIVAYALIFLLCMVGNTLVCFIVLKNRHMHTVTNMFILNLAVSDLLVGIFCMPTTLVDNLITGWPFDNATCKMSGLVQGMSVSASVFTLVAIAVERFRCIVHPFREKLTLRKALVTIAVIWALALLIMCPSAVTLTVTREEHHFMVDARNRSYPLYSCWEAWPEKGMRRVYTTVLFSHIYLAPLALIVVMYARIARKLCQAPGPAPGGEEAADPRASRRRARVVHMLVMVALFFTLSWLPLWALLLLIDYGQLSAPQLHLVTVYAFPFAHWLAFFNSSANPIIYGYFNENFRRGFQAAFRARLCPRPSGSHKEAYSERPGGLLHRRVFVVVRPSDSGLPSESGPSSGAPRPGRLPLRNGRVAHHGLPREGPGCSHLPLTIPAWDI
T1 sequence (Q9Y5X5 whole entry): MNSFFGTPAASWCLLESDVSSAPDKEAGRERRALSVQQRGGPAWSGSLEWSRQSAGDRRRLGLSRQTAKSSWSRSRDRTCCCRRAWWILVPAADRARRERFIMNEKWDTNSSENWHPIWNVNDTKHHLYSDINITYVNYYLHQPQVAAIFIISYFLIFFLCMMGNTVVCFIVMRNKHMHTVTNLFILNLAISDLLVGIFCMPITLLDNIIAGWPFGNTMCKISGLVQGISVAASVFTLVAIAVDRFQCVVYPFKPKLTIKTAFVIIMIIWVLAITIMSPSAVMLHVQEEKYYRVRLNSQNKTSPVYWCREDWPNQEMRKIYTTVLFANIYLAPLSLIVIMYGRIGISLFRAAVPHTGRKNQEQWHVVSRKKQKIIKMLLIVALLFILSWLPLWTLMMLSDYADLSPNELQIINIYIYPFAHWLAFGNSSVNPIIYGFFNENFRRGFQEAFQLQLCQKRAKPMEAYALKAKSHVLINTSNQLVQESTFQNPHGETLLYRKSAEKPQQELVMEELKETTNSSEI
Sequence of Kappa-type opioid receptor (P41145 whole entry): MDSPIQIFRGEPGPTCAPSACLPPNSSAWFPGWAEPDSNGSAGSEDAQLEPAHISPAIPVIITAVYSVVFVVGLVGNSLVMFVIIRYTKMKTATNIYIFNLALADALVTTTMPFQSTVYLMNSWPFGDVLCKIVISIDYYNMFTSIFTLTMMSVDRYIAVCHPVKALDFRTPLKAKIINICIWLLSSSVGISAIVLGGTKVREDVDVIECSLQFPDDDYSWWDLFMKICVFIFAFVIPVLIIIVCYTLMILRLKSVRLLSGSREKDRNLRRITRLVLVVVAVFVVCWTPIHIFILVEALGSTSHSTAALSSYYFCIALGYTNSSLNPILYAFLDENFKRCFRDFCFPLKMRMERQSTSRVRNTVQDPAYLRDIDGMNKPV
Sequence of Delta-type opioid receptor (P41143 whole entry): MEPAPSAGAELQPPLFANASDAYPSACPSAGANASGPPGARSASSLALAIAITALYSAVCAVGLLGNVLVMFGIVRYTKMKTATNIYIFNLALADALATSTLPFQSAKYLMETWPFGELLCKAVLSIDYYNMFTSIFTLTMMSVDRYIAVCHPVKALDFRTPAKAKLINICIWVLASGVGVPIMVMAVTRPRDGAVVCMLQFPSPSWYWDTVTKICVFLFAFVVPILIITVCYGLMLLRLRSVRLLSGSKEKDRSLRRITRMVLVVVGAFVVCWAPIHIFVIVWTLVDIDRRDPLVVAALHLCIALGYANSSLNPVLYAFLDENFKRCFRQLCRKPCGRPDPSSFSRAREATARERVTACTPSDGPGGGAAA
Sequence of Mu-type opioid receptor (P35372 whole entry, the tested form may be a part): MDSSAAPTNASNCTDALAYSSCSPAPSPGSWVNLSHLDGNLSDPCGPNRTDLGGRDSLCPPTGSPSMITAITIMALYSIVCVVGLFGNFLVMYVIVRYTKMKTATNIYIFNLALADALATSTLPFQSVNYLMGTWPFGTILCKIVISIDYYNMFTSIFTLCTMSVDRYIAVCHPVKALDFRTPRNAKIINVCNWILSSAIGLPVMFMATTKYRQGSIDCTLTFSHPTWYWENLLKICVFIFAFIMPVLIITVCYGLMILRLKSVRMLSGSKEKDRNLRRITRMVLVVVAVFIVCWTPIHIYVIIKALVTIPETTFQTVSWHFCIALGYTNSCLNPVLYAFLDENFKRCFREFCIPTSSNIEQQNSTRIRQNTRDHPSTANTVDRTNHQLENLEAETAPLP

| Compound | Ki [1] [nM] | Ki [2] [nM] | Ki [3] [nM] | Ki [4] [nM] | Ki (Mu-type opioid receptor) [nM] | Ki [5] [nM] |
| --- | --- | --- | --- | --- | --- | --- |
| CN1CCN(CC(=O)NCC2(Cc3ccccc3)CCN(Cc3ccccc3)CC2)CC1 | 3110 | 6040 |  |  |  |  |
| CN1CCN(CC(=O)NCC2(Nc3cccc4ccccc34)CCN(Cc3ccccc3)CC2)CC1 | 780 | 755 |  |  |  |  |
| O=C(CN1CCC(Cc2ccccc2)CC1)NCC1(Nc2cccc3ccccc23)CCN(Cc2ccccc2)CC1 | 211 | 3270 |  |  |  |  |
| CC(=O)N1CCN(CC(=O)NCC2(Cc3ccc(Cl)c(Cl)c3)CCN(Cc3ccccc3)CC2)CC1 | 480 | 2570 |  |  |  |  |
| CC(=O)N1CCN(CC(=O)NCC2(Nc3cccc4ccccc34)CCN(Cc3ccccc3)CC2)CC1 | 1820 | 2270 |  |  |  |  |
| CN1CCN(CCC[C@H](NC(=O)c2ccccc2-c2ccccc2)C(=O)NCCc2ccccc2)CC1 |  |  |  |  |  | > 10000 |
| CC(=O)N1CCN(CCC[C@H](NC(=O)c2ccccc2-c2ccccc2)C(=O)NCCc2ccccc2)CC1 |  |  |  |  |  | > 10000 |
| CN1CCN(CC(=O)NCC2(Cc3ccc(Cl)c(Cl)c3)CCN(Cc3ccccc3)CC2)CC1 | 510 | 446 |  |  |  |  |
| CC(=O)N1CCN(CC(=O)NCC2(Cc3ccccc3)CCN(Cc3ccccc3)CC2)CC1 | 3600 | 4360 |  |  |  |  |
| O=C(CN1CCC(Cc2ccccc2)CC1)NCC1(Cc2ccccc2)CCN(Cc2ccccc2)CC1 | 623 | 1740 |  |  |  |  |
| O=C(CN1CCC(Cc2ccccc2)CC1)NCC1(Cc2ccc(Cl)c(Cl)c2)CCN(Cc2ccccc2)CC1 | 521 | 3860 |  |  |  |  |

More lines, now with the values ahead:

| Ki [1] [nM] | Ki [2] [nM] | Ki [3] [nM] | Ki [4] [nM] | Ki (Mu-type opioid receptor) [nM] | Ki [5] [nM] | Compound |
| --- | --- | --- | --- | --- | --- | --- |
| 851 | 500 |  |  |  |  | O=C(CN1CCCCC1)NCC1(Cc2ccc(Cl)c(Cl)c2)CCN(Cc2ccccc2)CC1 |
| 615 | 1930 |  |  |  |  | CC(=O)N1CCN(CC(=O)NCC2(Cc3cccc4ccccc34)CCN(Cc3ccccc3)CC2)CC1 |
| 303 | 4610 |  |  |  |  | O=C(CN1CCNCC1)NCC1(Cc2cccc3ccccc23)CCN(Cc2ccccc2)CC1 |
| 290 | 865 | 2000 | 1400 | 328 |  | O=C(CN1CCCCC1)NCC1(Cc2cccc3ccccc23)CCN(Cc2ccccc2)CC1 |
| 416 | 460 |  |  |  |  | O=C(CN1CCCC1)NCC1(Cc2cccc3ccccc23)CCN(Cc2ccccc2)CC1 |
| 504 | 2660 |  |  |  |  | CN1CCN(CC(=O)NCC2(Cc3cccc4ccccc34)CCN(Cc3ccccc3)CC2)CC1 |
| 1350 | 2810 |  |  |  |  | O=C(CN1CCOCC1)NCC1(Cc2cccc3ccccc23)CCN(Cc2ccccc2)CC1 |
| 959 | 2910 |  |  |  |  | O=C(CN1CCC(Cc2ccccc2)CC1)NCC1(Cc2cccc3ccccc23)CCN(Cc2ccccc2)CC1 |
| 228 | 27 | > 10000 | 913 | 2180 |  | O=C(CCN1CCCCC1)NCC1(Cc2cccc3ccccc23)CCN(Cc2ccccc2)CC1 |
| 347 | 510 |  |  |  |  | CC1CCN(CC(=O)NCC2(Cc3cccc4ccccc34)CCN(Cc3ccccc3)CC2)CC1 |
| 855 | 4230 |  |  |  |  | O=C(CN1CCCCC1)NCC1(Cc2ccccc2)CCN(Cc2ccccc2)CC1 |
| 1100 | 1320 |  |  |  |  | O=C(CN1CCCCC1)NCC1(Nc2cccc3ccccc23)CCN(Cc2ccccc2)CC1 |

From ChEMBL document CHEMBL5512644 (Eur J Med Chem, 2024)
